Measurements reported in ChEMBL document CHEMBL3044640, “Antifeedant, insect growth regulatory and insecticidal effects of Calceolaria talcana (Calceolariaceae) on Drosophila melanogaster and Spodoptera frugiperda” (2013).
In brackets after ≈: the same amount, converted by molar mass. Activity calls are given as the source filed them. The calls are words filed in the database; no cut-off is given here.

Experiments:
[1] = test system: Drosophila melanogaster; test: Antifeedant activity against larvae of Drosophila melanogaster at 25 ug/ml after 12 to 24 hr; format: functional
[2] = test system: Drosophila melanogaster; test: Insecticidal activity against larvae of Drosophila melanogaster assessed as mortality at 100 ug/ml after 72 hr by not choice test; format: functional
[3] = test system: Spodoptera frugiperda; test: Antifeedant activity against larvae of Spodoptera frugiperda (fall armyworm) assessed reduction of adult emergence at 20 ppm after 21 days relative to control; format: functional; design: scale not given: the % may be the effect or the level left
[4] = test system: Spodoptera frugiperda; test: Insecticidal activity against larvae of Spodoptera frugiperda (fall armyworm) assessed growth index at 10 ppm relative to control; format: functional
[5] = test system: Spodoptera frugiperda; test: Insecticidal activity against larvae of Spodoptera frugiperda (fall armyworm) assessed induction of prothetely appearance of precocious pupal structures in larvae at 50 ug/ml, po after 48 to 72 hr; format: functional, organism-based
[6] = test system: Drosophila melanogaster; test: Antifeedant activity against larvae of Drosophila melanogaster at 50 ug/ml after 12 to 24 hr; format: functional
[7] = test system: Spodoptera frugiperda; test: Antifeedant activity against larvae of Spodoptera frugiperda (fall armyworm) at 5 ug/ml after 12 to 24 hr; format: functional
[8] = test system: Spodoptera frugiperda; test: Antifeedant activity against larvae of Spodoptera frugiperda (fall armyworm) assessed reduction of weight gain at 50 ppm after 21 days relative to control; format: functional; design: scale not given: the % may be the effect or the level left
[9] = test system: Spodoptera frugiperda; test: Antifeedant activity against larvae of Spodoptera frugiperda (fall armyworm) assessed reduction of adult emergence at 10 ppm after 21 days relative to control; format: functional; design: scale not given: the % may be the effect or the level left
[10] = test system: Spodoptera frugiperda; test: Insecticidal activity against larvae of Spodoptera frugiperda (fall armyworm) assessed growth index at 35 ppm; format: functional
[11] = test system: Spodoptera frugiperda; test: Antifeedant activity against larvae of Spodoptera frugiperda (fall armyworm) assessed reduction of pupation at 35 ppm after 21 days relative to control; format: functional; design: scale not given: the % may be the effect or the level left
[12] = test system: Spodoptera frugiperda; test: Antifeedant activity against larvae of Spodoptera frugiperda (fall armyworm) at 25 ug/ml after 12 to 24 hr; format: functional
[13] = test system: Drosophila melanogaster; test: Insecticidal activity against larvae of Drosophila melanogaster assessed as mortality at 20 ug/ml after 72 hr by not choice test; format: functional
[14] = test system: Spodoptera frugiperda; test: Insecticidal activity against larvae of Spodoptera frugiperda (fall armyworm) assessed mortality at 50 ppm after 21 days relative to control; format: functional; conditions: 504 h
[15] = test system: Spodoptera frugiperda; test: Antifeedant activity against larvae of Spodoptera frugiperda (fall armyworm) assessed reduction of weight gain at 35 ppm after 21 days relative to control; format: functional; design: scale not given: the % may be the effect or the level left
[16] = test system: Spodoptera frugiperda; test: Antifeedant activity against larvae of Spodoptera frugiperda (fall armyworm) assessed reduction of weight gain at 20 ppm after 21 days relative to control; format: functional; design: scale not given: the % may be the effect or the level left
[17] = test system: Spodoptera frugiperda; test: Antifeedant activity against larvae of Spodoptera frugiperda (fall armyworm) assessed reduction of adult emergence at 35 ppm after 21 days relative to control; format: functional; design: scale not given: the % may be the effect or the level left
[18] = test system: Spodoptera frugiperda; test: Antifeedant activity against larvae of Spodoptera frugiperda (fall armyworm) at 100 ug/ml after 12 to 24 hr; format: functional
[19] = test system: Spodoptera frugiperda; test: Antifeedant activity against larvae of Spodoptera frugiperda (fall armyworm) at 10 ug/ml after 12 to 24 hr; format: functional
[20] = test system: Drosophila melanogaster; test: Insecticidal activity against larvae of Drosophila melanogaster assessed as mortality after 72 hr by not choice test; format: functional
[21] = test system: Drosophila melanogaster; test: Antifeedant activity against larvae of Drosophila melanogaster at 100 ug/ml after 12 to 24 hr; format: functional
[22] = test system: Spodoptera frugiperda; test: Antifeedant activity against larvae of Spodoptera frugiperda (fall armyworm) at 50 ug/ml after 12 to 24 hr; format: functional
[23] = test system: Spodoptera frugiperda; test: Insecticidal activity against larvae of Spodoptera frugiperda (fall armyworm) assessed induction of apolysis at 25 ug/ml, po after 21 days; format: functional, organism-based
[24] = test system: Spodoptera frugiperda; test: Insecticidal activity against larvae of Spodoptera frugiperda (fall armyworm) assessed growth index at 10 ppm; format: functional
[25] = test system: Spodoptera frugiperda; test: Insecticidal activity against larvae of Spodoptera frugiperda (fall armyworm) assessed mortality at 35 ppm after 21 days relative to control; format: functional; conditions: 504 h
[26] = test system: Drosophila melanogaster; test: Insecticidal activity against larvae of Drosophila melanogaster assessed as mortality at 50 ug/ml after 72 hr by not choice test; format: functional
[27] = test system: Spodoptera frugiperda; test: Insecticidal activity against larvae of Spodoptera frugiperda (fall armyworm) assessed mortality at 20 ppm after 21 days relative to control; format: functional; conditions: 504 h
[28] = test system: Spodoptera frugiperda; test: Insecticidal activity against larvae of Spodoptera frugiperda (fall armyworm) assessed mortality at 10 ppm after 21 days relative to control; format: functional; conditions: 504 h
[29] = test system: Spodoptera frugiperda; test: Insecticidal activity against larvae of Spodoptera frugiperda (fall armyworm) assessed growth index at 25 ppm; format: functional
[30] = test system: Spodoptera frugiperda; test: Antifeedant activity against larvae of Spodoptera frugiperda (fall armyworm) assessed reduction of pupation at 20 ppm after 21 days relative to control; format: functional; design: scale not given: the % may be the effect or the level left
[31] = test system: Spodoptera frugiperda; test: Insecticidal activity against larvae of Spodoptera frugiperda (fall armyworm) assessed growth index at 50 ppm relative to control; format: functional
[32] = test system: Spodoptera frugiperda; test: Antifeedant activity against larvae of Spodoptera frugiperda (fall armyworm) assessed reduction of adult emergence at 50 ppm after 21 days relative to control; format: functional; design: scale not given: the % may be the effect or the level left
[33] = test system: Spodoptera frugiperda; test: Antifeedant activity against larvae of Spodoptera frugiperda (fall armyworm) assessed reduction of pupation at 10 ppm after 21 days relative to control; format: functional; design: scale not given: the % may be the effect or the level left
[34] = test system: Spodoptera frugiperda; test: Insecticidal activity against larvae of Spodoptera frugiperda (fall armyworm) assessed growth index at 25 ppm relative to control; format: functional
[35] = test system: Spodoptera frugiperda; test: Antifeedant activity against larvae of Spodoptera frugiperda (fall armyworm) assessed reduction of pupation at 50 ppm after 21 days relative to control; format: functional; design: scale not given: the % may be the effect or the level left
[36] = test system: Spodoptera frugiperda; test: Insecticidal activity against larvae of Spodoptera frugiperda (fall armyworm) assessed growth index at 35 ppm relative to control; format: functional
[37] = test system: Spodoptera frugiperda; test: Antifeedant activity against larvae of Spodoptera frugiperda (fall armyworm) assessed reduction of weight gain at 10 ppm after 21 days relative to control; format: functional; design: scale not given: the % may be the effect or the level left
[38] = test system: Drosophila melanogaster; test: Antifeedant activity against larvae of Drosophila melanogaster at 10 ug/ml after 12 to 24 hr; format: functional
[39] = test system: Spodoptera frugiperda; test: Insecticidal activity against larvae of Spodoptera frugiperda (fall armyworm) assessed growth index at 50 ppm; format: functional
[40] = test system: Spodoptera frugiperda; test: Insecticidal activity against larvae of Spodoptera frugiperda (fall armyworm) assessed inhibition of ecdysis at 25 ug/ml, po after 21 days; format: functional, organism-based
[41] = test system: Spodoptera frugiperda; test: Antifeedant activity against larvae of Spodoptera frugiperda (fall armyworm) assessed reduction of pupation at 25 ppm after 21 days relative to control; format: functional; design: scale not given: the % may be the effect or the level left
[42] = test system: Spodoptera frugiperda; test: Antifeedant activity against larvae of Spodoptera frugiperda (fall armyworm) assessed reduction of adult emergence at 25 ppm after 21 days relative to control; format: functional; design: scale not given: the % may be the effect or the level left
[43] = test system: Spodoptera frugiperda; test: Insecticidal activity against larvae of Spodoptera frugiperda (fall armyworm) assessed mortality at 25 ppm after 21 days relative to control; format: functional; conditions: 504 h
[44] = test system: Spodoptera frugiperda; test: Antifeedant activity against larvae of Spodoptera frugiperda (fall armyworm) assessed reduction of weight gain at 25 ppm after 21 days relative to control; format: functional; design: scale not given: the % may be the effect or the level left

SMILES	AFI [1] [%]	mortality at 100 µg/mL [2] [%]	Ratio [4]	AFI [6] [%]	AFI [7] [%]	Activity [8] [%]	Activity [9] [%]	AFI [12] [%]	mortality at 20 µg/mL [13] [%]	mortality at 50 ppm [14] [%]	AFI [18] [%]	AFI [19] [%]	LC50 [20] [µg/mL]	AFI [21] [%]	AFI [22] [%]	Growth_index [24]	mortality at 50 µg/mL [26] [%]	mortality at 10 ppm [28] [%]	Growth_index [29]	Ratio [31]	other results
C[C@@H]1O[C@@H](O[C@@H]2[C@@H](O)[C@H](OCCc3ccc(O)c(O)c3)O[C@H](CO)[C@H]2OC(=O)/C=C/c2ccc(O)c(O)c2)[C@H](O)[C@H](O)[C@H]1O [ACETOSIDE]	100	100	0.67	100	78.9	0	0	96.7	92	100	100	88.2	8.08 (≈ 12.9 µM)	100	100	0.66	100	81.3	0.41	0.1	Activity [3]: 0%; Activity [5]: Active; Growth_index [10]: 0.09; Activity [11]: 0%; Activity [15]: 0%; Activity [16]: 1.35%; Activity [17]: 0%; Activity [23]: Active; mortality at 35 ppm [25]: 100%; mortality at 20 ppm [27]: 100%; Activity [30]: 3.1%; Activity [32]: 0%; Activity [33]: 3.1%; Ratio [34]: 0.45; Activity [35]: 0%; Ratio [36]: 0.15; Activity [37]: 2.15%; AFI [38]: 89%; Growth_index [39]: 0.07; inhibition [40]: Active
CC(=O)O[C@@H]1C[C@H]2C(C)(C)C(=O)C=C[C@]2(C)[C@H]2CC[C@@]3(C)[C@H](c4ccoc4)OC(=O)[C@H]4O[C@]43[C@@]21C [GEDUNIN]	98	100	0.71	100	68.8	0	15	85.6	87.1	100	100	74.5	11.9 (≈ 24.7 µM)	100	89.9	0.77	100	11.6	0.51	0.11	Activity [41]: 41.7%; Activity [42]: 13%; Activity [32]: 0%; Activity [33]: 54.2%; Ratio [34]: 0.55; Activity [35]: 0%; Activity [37]: 2.05%; AFI [38]: 81%; Growth_index [39]: 0.1; mortality at 25 ppm [43]: 8.4%; Activity [44]: 1.35%
